The record followed here is patent US8663632B1, “Compositions and methods for selectively targeting cancer cells using a thiaminase compound” (University of Kentucky Research Foundation, priority 2008, dated 2014).

For this assay, the system named is GRP78 and UPR pathway proteins in breast cancer cell lines. In words: Immunoblot analysis of energy and UPR pathway proteins. In kind it is cell-based, human. The settings on record: tunicamycin 5 μg/ml, thapsigargin 1 μM; all four breast cancer cell lines. The method, then: Cells were treated with thiaminase or anti-cancer agent for the indicated times and washed with ice-cold PBS. Cells were lysed with a triple-detergent lysis buffer (50 mM Tris pH8.0, 150 mM NaCl, 1% NP-40, 0.5% DOC, 0.1% SDS, 0.02% sodium azide and protease inhibitors). Equal amounts of protein were loaded into each well and separated by 10% SDS-PAGE gel, followed by transfer onto nitrocellulose membranes. The membranes were blocked, incubated with the indicated primary antibodies at 4° C. overnight, and the appropriate horseradish peroxidase-conjugated secondary antibody was added for 1 hour at room temperature. Immunoblots were developed by use of the enhanced chemiluminescence (ECL) detection system (Pierce, Rockford, Ill.) according to the manufacturer's protocol and autoradiography. All of the primary antibodies were purchased from Cell Signaling Technologies (Danvers, MA). The secondary antibodies were purchased from Sigma (St. Louis, Mo.). An anti-β-actin antibody was used as a control for protein loading.
Background: A western blot detects proteins with antibodies after separation by electrophoresis.

As for `C/C=C(/C)C(=O)O[C@H]1C(C)=C2[C@H]([C@@H]1OC(=O)CCCCCCC)[C@@](C)(OC(C)=O)C[C@H](OC(=O)CCC)[C@@]1(O)[C@H]2OC(=O)[C@@]1(C)O` [thapsigargin], the GRP78 induction entry is given as “marked induction”.
To tunicamycin belongs “marked induction”.
